The results in this text go back to BindingDB's records for doi:10.1016/0014-2999(89)90802-9 (Virginia Commonwealth University, 1989).

Test [1] concerns the target T1, 5-hydroxytryptamine receptor 3A (Rattus norvegicus, UniProt P35563).
T1 sequence (P35563 whole entry): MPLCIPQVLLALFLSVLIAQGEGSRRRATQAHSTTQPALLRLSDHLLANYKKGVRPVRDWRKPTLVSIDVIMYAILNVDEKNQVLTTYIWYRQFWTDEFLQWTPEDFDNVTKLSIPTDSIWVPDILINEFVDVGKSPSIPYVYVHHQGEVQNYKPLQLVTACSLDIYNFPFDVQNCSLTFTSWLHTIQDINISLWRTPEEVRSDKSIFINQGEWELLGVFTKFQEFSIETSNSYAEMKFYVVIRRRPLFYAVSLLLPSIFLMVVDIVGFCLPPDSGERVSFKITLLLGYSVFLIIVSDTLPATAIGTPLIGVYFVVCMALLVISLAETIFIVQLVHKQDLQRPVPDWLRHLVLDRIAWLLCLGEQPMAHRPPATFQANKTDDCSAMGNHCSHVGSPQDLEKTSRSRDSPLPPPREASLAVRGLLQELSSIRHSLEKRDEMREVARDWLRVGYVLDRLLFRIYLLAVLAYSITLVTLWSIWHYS

Test [2] has as its target 5-hydroxytryptamine receptor 2A (Rattus norvegicus, UniProt P14842).
Test [3] deals with 5-hydroxytryptamine receptor 1B (Rattus norvegicus, UniProt P28564).
Test [4] has as its target T2, Solute carrier family 22 member 1 (Rattus norvegicus, UniProt Q63089).
T2 sequence (Q63089 whole entry): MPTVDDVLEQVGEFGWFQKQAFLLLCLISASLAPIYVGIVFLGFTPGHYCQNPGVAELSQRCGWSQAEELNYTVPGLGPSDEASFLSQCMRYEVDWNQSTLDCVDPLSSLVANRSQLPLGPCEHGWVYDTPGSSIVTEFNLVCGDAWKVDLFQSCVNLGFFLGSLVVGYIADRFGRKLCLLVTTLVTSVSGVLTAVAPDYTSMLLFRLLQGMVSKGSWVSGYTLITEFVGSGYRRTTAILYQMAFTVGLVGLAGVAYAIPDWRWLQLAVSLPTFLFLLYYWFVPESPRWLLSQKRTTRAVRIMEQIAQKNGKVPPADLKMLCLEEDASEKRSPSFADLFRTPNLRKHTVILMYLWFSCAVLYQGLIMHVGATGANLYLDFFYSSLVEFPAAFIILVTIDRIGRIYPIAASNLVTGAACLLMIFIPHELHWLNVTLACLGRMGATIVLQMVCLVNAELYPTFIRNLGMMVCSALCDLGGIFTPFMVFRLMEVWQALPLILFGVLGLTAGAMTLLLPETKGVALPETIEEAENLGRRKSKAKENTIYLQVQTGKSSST

Test [5] deals with T3, Solute carrier family 22 member 2 (Rattus norvegicus, UniProt Q9R0W2).
T3 sequence (Q9R0W2 whole entry): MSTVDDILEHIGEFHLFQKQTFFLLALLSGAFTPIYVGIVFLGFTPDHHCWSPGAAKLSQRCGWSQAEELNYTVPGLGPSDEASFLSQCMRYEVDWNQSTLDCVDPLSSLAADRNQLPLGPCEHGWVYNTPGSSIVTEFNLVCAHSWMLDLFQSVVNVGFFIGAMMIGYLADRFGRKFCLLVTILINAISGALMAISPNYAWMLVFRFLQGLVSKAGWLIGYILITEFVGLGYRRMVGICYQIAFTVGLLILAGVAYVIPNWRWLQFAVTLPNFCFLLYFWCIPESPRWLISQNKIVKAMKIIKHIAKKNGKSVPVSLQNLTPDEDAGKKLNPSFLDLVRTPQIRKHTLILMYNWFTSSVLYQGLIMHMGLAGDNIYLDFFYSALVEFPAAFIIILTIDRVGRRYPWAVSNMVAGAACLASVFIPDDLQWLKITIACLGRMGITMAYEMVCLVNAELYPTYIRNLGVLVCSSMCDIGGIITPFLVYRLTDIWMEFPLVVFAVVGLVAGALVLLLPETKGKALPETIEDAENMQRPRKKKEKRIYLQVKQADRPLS

The target of test [6] is T4, Muscarinic acetylcholine receptor M2 (Rattus norvegicus, UniProt P10980).
T4 sequence (P10980 whole entry): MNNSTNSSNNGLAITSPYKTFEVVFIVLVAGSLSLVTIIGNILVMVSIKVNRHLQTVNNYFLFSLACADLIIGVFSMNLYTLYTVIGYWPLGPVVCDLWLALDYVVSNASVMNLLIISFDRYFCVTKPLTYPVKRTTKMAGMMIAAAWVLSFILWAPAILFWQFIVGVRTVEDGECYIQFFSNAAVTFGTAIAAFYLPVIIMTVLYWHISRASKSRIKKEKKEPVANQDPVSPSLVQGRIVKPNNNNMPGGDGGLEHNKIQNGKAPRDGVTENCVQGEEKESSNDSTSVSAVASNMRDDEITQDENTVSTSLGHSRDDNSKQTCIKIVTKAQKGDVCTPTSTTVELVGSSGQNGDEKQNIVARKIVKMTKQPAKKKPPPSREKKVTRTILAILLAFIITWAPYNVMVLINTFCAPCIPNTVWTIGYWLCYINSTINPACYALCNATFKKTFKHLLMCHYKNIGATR

Test [7] addresses Beta-2 adrenergic receptor (Rattus norvegicus, UniProt P10608).
For test [8], the target named is T5, 5-hydroxytryptamine receptor 1A (Rattus norvegicus, UniProt P19327).
T5 sequence (P19327 whole entry): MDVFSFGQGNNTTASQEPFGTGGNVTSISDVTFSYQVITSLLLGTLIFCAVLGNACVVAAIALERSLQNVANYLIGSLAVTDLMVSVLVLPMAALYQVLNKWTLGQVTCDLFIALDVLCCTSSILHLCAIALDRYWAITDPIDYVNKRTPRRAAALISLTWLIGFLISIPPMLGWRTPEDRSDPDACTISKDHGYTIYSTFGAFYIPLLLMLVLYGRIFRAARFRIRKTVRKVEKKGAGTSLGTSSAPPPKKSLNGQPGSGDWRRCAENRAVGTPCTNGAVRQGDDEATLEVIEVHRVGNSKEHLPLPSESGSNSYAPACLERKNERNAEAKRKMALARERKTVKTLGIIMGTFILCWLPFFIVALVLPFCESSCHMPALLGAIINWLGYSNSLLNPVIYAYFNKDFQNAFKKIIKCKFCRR

Test [9] has as its target T6, Alpha-1A adrenergic receptor (Rattus norvegicus, UniProt P43140).
T6 sequence (P43140 whole entry): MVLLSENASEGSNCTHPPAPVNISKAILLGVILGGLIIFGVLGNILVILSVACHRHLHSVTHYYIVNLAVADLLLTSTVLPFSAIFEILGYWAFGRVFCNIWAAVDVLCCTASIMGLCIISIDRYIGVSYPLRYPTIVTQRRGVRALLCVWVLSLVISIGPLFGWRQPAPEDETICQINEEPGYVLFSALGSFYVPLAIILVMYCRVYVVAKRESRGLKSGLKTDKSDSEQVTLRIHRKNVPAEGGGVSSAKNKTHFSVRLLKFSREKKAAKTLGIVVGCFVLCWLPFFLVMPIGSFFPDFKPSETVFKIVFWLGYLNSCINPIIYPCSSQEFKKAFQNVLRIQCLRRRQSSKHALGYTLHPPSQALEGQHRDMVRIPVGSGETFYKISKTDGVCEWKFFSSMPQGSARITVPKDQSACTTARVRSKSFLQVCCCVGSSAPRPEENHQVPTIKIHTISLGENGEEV

Test [10] concerns the target Gamma-aminobutyric acid receptor subunit alpha-1 (Rattus norvegicus, UniProt P62813).
For test [11], the target named is T7, Alpha-2C adrenergic receptor (Rattus norvegicus, UniProt P22086).
T7 sequence (P22086 whole entry): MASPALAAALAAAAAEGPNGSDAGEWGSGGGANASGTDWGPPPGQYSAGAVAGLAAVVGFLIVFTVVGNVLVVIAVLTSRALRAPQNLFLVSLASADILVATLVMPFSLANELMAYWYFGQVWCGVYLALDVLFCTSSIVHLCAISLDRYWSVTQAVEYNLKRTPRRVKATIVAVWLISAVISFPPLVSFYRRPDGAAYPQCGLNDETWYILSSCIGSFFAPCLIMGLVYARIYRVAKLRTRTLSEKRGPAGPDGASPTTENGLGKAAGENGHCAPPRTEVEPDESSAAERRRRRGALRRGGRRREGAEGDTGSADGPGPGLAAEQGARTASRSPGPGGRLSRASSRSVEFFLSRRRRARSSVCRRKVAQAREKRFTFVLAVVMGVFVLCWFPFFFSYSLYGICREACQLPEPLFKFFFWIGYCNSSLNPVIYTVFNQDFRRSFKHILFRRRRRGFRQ

5-hydroxytryptamine receptor 1B, sequence (P28564 whole entry): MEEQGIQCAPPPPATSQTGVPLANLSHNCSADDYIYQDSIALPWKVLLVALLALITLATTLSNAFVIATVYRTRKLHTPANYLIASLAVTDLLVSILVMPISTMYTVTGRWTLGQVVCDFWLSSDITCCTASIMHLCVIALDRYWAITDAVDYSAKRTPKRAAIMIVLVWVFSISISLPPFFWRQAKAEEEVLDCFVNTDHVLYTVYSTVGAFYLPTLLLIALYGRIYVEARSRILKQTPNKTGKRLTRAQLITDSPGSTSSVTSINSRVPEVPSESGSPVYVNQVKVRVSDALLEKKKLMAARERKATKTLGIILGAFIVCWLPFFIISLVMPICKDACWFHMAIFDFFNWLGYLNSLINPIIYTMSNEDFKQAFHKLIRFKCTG
5-hydroxytryptamine receptor 2A, sequence (P14842 whole entry): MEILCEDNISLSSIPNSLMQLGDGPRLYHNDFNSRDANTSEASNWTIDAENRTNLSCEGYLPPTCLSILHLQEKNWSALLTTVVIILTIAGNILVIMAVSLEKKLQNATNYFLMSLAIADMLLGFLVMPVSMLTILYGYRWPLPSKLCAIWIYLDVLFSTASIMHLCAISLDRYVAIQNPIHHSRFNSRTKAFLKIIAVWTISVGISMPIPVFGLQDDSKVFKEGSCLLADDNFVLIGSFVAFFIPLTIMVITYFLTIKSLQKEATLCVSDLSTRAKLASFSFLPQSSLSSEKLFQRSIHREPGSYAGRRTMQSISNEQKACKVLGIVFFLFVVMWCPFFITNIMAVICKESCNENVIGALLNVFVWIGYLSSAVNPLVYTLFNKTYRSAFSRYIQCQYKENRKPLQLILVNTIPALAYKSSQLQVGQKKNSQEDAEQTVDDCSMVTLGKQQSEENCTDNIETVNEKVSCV
Beta-2 adrenergic receptor, sequence (P10608 whole entry): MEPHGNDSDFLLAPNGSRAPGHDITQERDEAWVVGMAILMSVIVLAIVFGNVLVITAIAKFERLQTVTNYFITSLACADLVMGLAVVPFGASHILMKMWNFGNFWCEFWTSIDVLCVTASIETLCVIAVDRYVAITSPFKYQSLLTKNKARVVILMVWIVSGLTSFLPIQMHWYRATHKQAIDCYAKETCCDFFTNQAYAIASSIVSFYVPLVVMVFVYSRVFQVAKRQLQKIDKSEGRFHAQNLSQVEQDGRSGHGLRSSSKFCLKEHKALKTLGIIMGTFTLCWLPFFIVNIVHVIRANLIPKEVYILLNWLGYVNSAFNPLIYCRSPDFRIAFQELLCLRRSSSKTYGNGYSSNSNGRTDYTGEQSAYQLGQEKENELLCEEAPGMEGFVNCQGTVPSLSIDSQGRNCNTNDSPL
Gamma-aminobutyric acid receptor subunit alpha-1, sequence (P62813 whole entry): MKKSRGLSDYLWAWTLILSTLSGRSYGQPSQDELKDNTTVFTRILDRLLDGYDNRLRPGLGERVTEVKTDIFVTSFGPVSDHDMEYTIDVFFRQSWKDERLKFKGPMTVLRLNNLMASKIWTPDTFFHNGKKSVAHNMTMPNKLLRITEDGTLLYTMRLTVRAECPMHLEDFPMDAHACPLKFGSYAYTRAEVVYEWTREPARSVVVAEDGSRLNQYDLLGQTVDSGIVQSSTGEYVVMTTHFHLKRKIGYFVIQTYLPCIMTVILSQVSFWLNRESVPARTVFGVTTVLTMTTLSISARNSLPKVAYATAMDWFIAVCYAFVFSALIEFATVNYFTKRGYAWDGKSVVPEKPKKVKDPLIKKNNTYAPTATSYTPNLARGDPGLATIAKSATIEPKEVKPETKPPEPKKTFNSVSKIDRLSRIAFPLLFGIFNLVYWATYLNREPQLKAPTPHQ

`COc1ccccc1N1CCNCC1` had a Ki in test [1] of 324 nM.
Same read-out and setting: for `Clc1ccc(N2CCNCC2)cc1` the value was 120 nM; for `c1ccc(N2CCNCC2)cc1`, 430 nM; for `c1ccc2c(N3CCNCC3)cccc2c1`, 110 nM.
On the same count and under the same terms, next, `c1ccc(C2CCNCC2)cc1`: 440 nM.
Still for that read-out and setting: next, `COc1cccc2ccc(N3CCNCC3)nc12`: 360 nM; `CCCN(CCC)c1ccc2ccccc2n1`: 1000 nM.
For `c1ccc2nc(N3CCCCC3)ccc2c1`, the affinity in [1], expressed as Ki, was 1000 nM. This counts as single-digit micromolar.
Consider `c1cnc(N2CCNCC2)nc1` [1-PP], for which the Ki in [1] came out at 4000 nM.
In the case of `c1ccc2nc(N3CCNCC3)ccc2c1` [2-Piperazin-1-yl-quinoline (Quipazine)], the inhibition constant Ki in test [2] is 180 nM; in test [3], 200 nM; in test [1] it was 1.5 nM; in [4], over 10000 nM; in [5], 5000 nM; in [6], over 10000 nM. In addition, in test [7], the inhibitory constant (Ki) was 2900 nM.
In [1], `COc1ccc(N2CCNCC2)cc1` [4-METHOXYPHENYLPIPERAZINE] yielded an inhibition constant (Ki) of 340 nM.
Still for that read-out and setting: for `COc1cccc2ccc(N3CCN(C)CC3)nc12` [8-Methoxy-N-methylquipazine] the value was 440 nM; for `Clc1cncc(N2CCNCC2)n1` [L-630,571], 29 nM.
Still for that read-out and setting: next, `CCCN1CCN(c2ccc3ccccc3n2)CC1` [N-Propylquipazine]: 15 nM.
In turn, `CN(C)C[C@@H]1C2CCC(CC2)[C@@H]1c1ccc(Cl)c(Cl)c1` [NSC_398] yielded a Ki in test [1] of 30 nM.
Take `CN1CCN(c2nc3ccccc3c(=O)[nH]2)CC1` [NSC_63211]: the Ki in [1] was 270 nM.
For `Cc1cccc2ccc(N3CCNCC3)nc12` [QUIPAZINE,8-Me], the Ki is 550 nM in test [2]; 1700 nM in [8]; over 10000 nM in test [3]; over 10000 nM in test [9]; over 10000 nM in test [10]; 4.7 nM in test [1]. The Ki is 3800 nM in test [11], over 10000 nM in test [6] and over 10000 nM in test [7].
In test [1], `Clc1cccc(N2CCNCC2)c1` [mCPP] returned an inhibition constant Ki of 20 nM.

Usually Ki stands for a measure of affinity in units of concentration, obtained from inhibition or displacement. High values mean weaker binding, low ones tighter binding.
